# PMC5563081, “Modulating Protein-Protein Interactions of the Mitotic Polo-like Kinases to Target Mutant KRAS” (Cell Chemical Biology, 2017)
# What was measured:
# [1] = Stability in human hepatocytes; format: in vitro ADME
# [2] = target: T1, PLK1 (Homo sapiens, UniProt P53350); test: Cellular thermal shift assay (CeTSA / ITDRF-CeTSA) in HeLa cell lysates; format: binding
# T1 construct: endogenous in cells; host or cells: HeLa cell lysate
# Description: Two million HeLa cells were assessed for viability using Trypan blue and aliquoted into PCR tubes for lysate preparation and CeTSA. Aggregation temperature (Tagg) was determined for PLK1 PBD with a Biorad Tetrad gradient maker, using a final concentration of 1mM or 0.5mM for Poloppin or Poloppin-II, respectively, in 5% DMSO ([Jafari et al., 2014]). Samples were assessed using PLK1 antibodies (Invitrogen 33-1700) and GAPDH (Santa Cruz sc137179) and Li-Cor antibody (926-32252). Quantification was done with Odyssey Li-Cor technology.
# [3] = test system: HCT116 wt; test: Viability of drug-sensitive parental HCT116 cells; format: cell-based; conditions: Homo sapiens, HCT-116, 72 h
# Description: Viability is represented as percentage survival normalised to DMSO control. […] PCR reactions were carried out using Amplitaq Gold polymerase (Applied Biosystems N8080241) with a 25-cycle programme. […] Prepared samples were submitted for next generation sequencing using MiSeq Nano run with Nextera XT library preparation. Sequencing and subsequent bioinformatics were performed by Cambridge Genomic Services (University Of Cambridge).
# [4] = test system: HeLa; test: GI50 for cell killing, HeLa; format: cell-based; conditions: Homo sapiens
# [5] = test system: parental HeLa cells; test: Live-cell imaging of cell fate, parental HeLa; format: cell-based, human; conditions: wild-type HeLa
# Description: (§1) Five x10^4 cells were seeded on each well of 4-well coverglass Lab-Tek chambers in a volume of 800 μl. HeLa-G12D cells were induced with Doxycycline (Dox) 24h before seeding and kept in Dox for the rest of the experiment.
# (§2) For live cell imaging analysis image sequences were viewed using ImageJ software and cell fate was analysed manually. Time spent in mitosis for different groups was compared with a Kruskal-Wallis test and Dunn's multiple comparison correction.
# [6] = test system: HeLa cells expressing KRAS G12D; test: Live-cell imaging of cell fate, HeLa KRAS G12D; format: cell-based, human; conditions: Poloppin at GI50 dose, 3% in DMSO controls
# Description: as §1, §2
# [7] = test system: HeLa-KRAS G12D; test: GI50 for cell killing, HeLa-KRAS G12D; format: cell-based; conditions: Homo sapiens
# Description: as §1
# [8] = test system: MEFs KRAS WT p53 MUT; test: Cell viability in MEFs, KRAS WT p53 MUT; format: cell-based; conditions: Mus musculus
# Description: KrasWT mouse embryonic fibroblasts (MEFs) were derived from conditional LSL-Trp53^R172H/+ embryos. LSL-Trp53^R172H/+, LSL-Kras^G12D/+ ([Hingorani et al., 2005]) strains were interbred to obtain LSL-Kras^G12D/+, LSL-Trp53^R172H/+ Kras^G12D embryos for MEF preparation. Briefly, MEFs were derived from E13.5 embryos after decapitation and evisceration. Finely minced tissue was passed through a 16-G needle two or three times before dissociated cells were cultured in DMEM with 10% FBS. Cre-mediated recombination to activate the Kras^G12D allele was induced via addition of 500nM 4-OH Tamoxifen to the culture media overnight.
# [9] = test system: U2OS cells; test: Quantification of mitotic phenotypes by immunofluorescence; format: cell-based, human; conditions: 12.5 μM
# Description: Cells were plated on glass coverslips and incubated overnight. Cells were treated with compound diluted in medium for 24hrs. Medium was then removed and cells fixed in 20mM PIPES pH8, 20mM HEPES pH8, 5mM EGTA, 2mM MgCl, 0.2% Triton X-100 and 3.7% formaldehyde. Cells were washed in PBS containing 0.1% Tween-20 then incubated with anti-alpha tubulin antibody (Santa Cruz sc-32293) and anti-CREST antibody (Europa 90C-CS1058). Cells were washed then incubated with Alexa Fluor 568 labelled goat anti-mouse IgG (Invitrogen A11031) or Alexa Fluor 633 labelled goat anti-mouse IgG (Invitrogen A21052) and Alexa Fluor 488 goat anti-human IgG (Invitrogen A11013). Cells were washed and then mounted on glass slides in Vectashield mounting medium containing DAPI.
# [10] = test system: HCT116 KRAS G13D cells; test: Development of drug resistance under continuous treatment; format: cell-based, human; conditions: continuous treatment at 5x GI50
# Description: HCT116 wild-type cells (Horizon Discovery Ltd.) cultured in McCoy's 5A (Life Technologies #26600) medium supplemented with 10% Foetal Calf Serum (Life Technologies #10270) were treated on three occasions with titrations of the PLK1 ATP-competitive inhibitor BI 2536 (Selleckchem #S1109) or Poloppin in order to determine the 2.5x GI50, 3x GI50 and 5x GI50 values for each compound required to initiate the development of resistance. Cells were subsequently treated with 2.5x GI50, 3x GI50 and 5x GI50 concentrations of either compound, changing media and compound every three to four days until resistant colonies emerged or no viable cells remained. Single cell clones were isolated from cells resistant to 5x GI50 BI 2536. Equivalent experiments using 3x GI50 or 2.5x GI50 doses of Poloppin or BI2536 yielded identical results (data not shown). BI 2536-resistant clones (HCT116 BI 2536-Res. Clones) were treated with BI2536 or Poloppin, alongside drug-sensitive parental HCT116 cells (HCT116 wt), and viability was assessed after 72 h. Viability is represented as percentage survival normalised to DMSO control. […]
# T1 sequence (P53350 whole entry): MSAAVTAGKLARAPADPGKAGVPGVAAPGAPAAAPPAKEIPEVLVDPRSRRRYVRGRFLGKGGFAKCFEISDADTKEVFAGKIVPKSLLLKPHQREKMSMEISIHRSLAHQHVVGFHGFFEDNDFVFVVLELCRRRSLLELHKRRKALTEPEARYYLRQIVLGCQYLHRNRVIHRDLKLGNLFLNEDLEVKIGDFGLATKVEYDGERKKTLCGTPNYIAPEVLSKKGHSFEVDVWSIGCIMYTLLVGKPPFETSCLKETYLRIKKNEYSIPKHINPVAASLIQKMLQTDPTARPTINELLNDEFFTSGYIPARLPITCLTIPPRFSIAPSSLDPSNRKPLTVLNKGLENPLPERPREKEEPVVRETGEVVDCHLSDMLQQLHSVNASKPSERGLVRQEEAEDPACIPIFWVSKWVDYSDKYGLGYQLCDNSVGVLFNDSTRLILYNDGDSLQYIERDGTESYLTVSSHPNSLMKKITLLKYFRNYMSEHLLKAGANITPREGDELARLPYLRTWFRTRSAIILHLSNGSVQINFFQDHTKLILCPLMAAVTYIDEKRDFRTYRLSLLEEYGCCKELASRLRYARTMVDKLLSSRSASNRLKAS
SMILES,half-life [1] [h],hepatocyte CLint [1] [µL/min/1e6 cells],concentration at which cellular PLK1 is stabilized (ITDRF-CeTSA) ([2]; cell lysates at a constant 67°C) [µM],"thermal stability of PLK1 protein (CeTSA) ([2]; fixed dose of 1 mM, HeLa cell lysates, compared with control)",GI50 [3] [µM],GI50 [4] [µM],"average time in mitosis ([5]; Poloppin at GI50 dose (10μM), 60 min without) [min]","frequency of aneuploid divisions ([5]; Poloppin at GI50 dose, 4% after DMSO) [%]",frequency of death in mitosis [6] [%],GI50 [7] [µM],GI50 ([8]; MEFs KRAS WT p53 MUT) [µM],GI50 ([8]; MEFs KRAS WT p53 MUT+4OHT) [µM],cells with normal metaphase chromosome alignment [9] [%],acquisition of drug resistance [10]
CN(C)CCNC(=O)c1ccc(-c2ccc(-c3ccc(Cl)cc3)n2-c2ccccc2C(F)(F)F)cc1 [Poloppin-II],2.27,10,–,–,–,–,–,–,–,–,–,–,–,–
O=C(O)CCc1ccc(-c2ccc(Br)cc2)n1-c1ccccc1C(F)(F)F [Poloppin],–,–,> 40,increased thermal stability,11.1,10,100,38,36,5,51.1 ± 1.05,43.7 ± 1.09,< 5,undetectable
